Reference: patent publication US8901133B2, “Heterocyclic compounds and uses thereof” (Infinity Pharmaceuticals, Inc., priority 2010, dated 2014)

Columns and labels:
[1] = target: T1, PI3Kβ (Homo sapiens, UniProt P42338); test: PI3 Kinase HTRF assay, PI3Kβ; assay type: biochemical; details: 10 μM PIP2, 10 μM ATP; read-out: PI3K β IC50
T1 construct: purchased Millipore Corporation 14-603-K
Method in brief: (§1)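 Compounds were tested at 12 concentrations from 20 μM down to 0.1 nM against purified recombinant PI3K, which phosphorylated PIP2 (10 μM) in the presence of ATP (10 μM). Formed PIP3 was quantified by time-resolved FRET using GRP1 PH domain binding; emission ratios gave percent inhibition and IC50.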

[2] = target: T2, PI3Kγ (Homo sapiens, UniProt P48736); test: PI3 Kinase HTRF assay, PI3Kγ; assay type: biochemical; details: 10 μM PIP2, 10 μM ATP; read-out: PI3K γ IC50
T2 construct: purchased Millipore Corporation 14-558-K
Method in brief: as §1

[3] = tested on: Balb/c splenic B cells; test: B cell activation and proliferation assay (Alamar Blue); assay type: cell-based; details: Mus musculus, read-out: B cell prolif. IC50
Method: The ability of one or more subject compounds to inhibit B cell activation and proliferation is determined according to standard procedures known in the art. For example, an in vitro cellular proliferation assay is established that measures the metabolic activity of live cells. The assay is performed in a 96 well microtiter plate using Alamar Blue reduction. Balb/c splenic B cells are purified over a Ficoll-Paque™ PLUS gradient followed by magnetic cell separation using a MACS B cell Isolation Kit (Miletenyi). Cells are plated in 90 ul at 50,000 cells/well in B Cell Media (RPMI+10% FBS+Penn/Strep+50 uM bME+5 mM HEPES). A compound disclosed herein is diluted in B Cell Media and added in a 10 μl volume. Plates are incubated for 30 min at 37 C and 5% CO2 (0.2% DMSO final concentration). A 50 μl B cell stimulation cocktail is then added containing either 10 ug/ml LPS or 5 ug/ml F(ab′)2 Donkey anti-mouse IgM plus 2 ng/ml recombinant mouse IL4 in B Cell Media. Plates are incubated for 72 hours at 37° C. and 5% CO2. A volume of 15 μl of Alamar Blue reagent is added to each well and plates are incubated for 5 hours at 37 C and 5% CO2. Alamar Blue fluoresce is read at 560Ex/590Em, and IC50 or EC50 values are calculated using GraphPad Prism 5.

[4] = target: T3, PI3Kδ (Homo sapiens, UniProt O00329); test: PI3 Kinase HTRF assay, PI3Kδ; assay type: biochemical; details: 10 μM PIP2, 10 μM ATP; read-out: PI3K δ IC50
T3 construct: purchased Millipore Corporation 14-604-K
Method in brief: as §1

[5] = target: T4, PI3Kα (Homo sapiens, UniProt P42336); test: PI3 Kinase HTRF assay, PI3Kα; assay type: biochemical; details: 10 μM PIP2, 10 μM ATP; read-out: PI3K α IC50
T4 construct: purchased Millipore Corporation 14-602-K
Method in brief: as §1

[6] = tested on: lupus symptoms; details: B6.Sle1z.Sle3z model; cited from earlier work
[7] = PBS pH 7.4, 37° C., 24 hours, 5 μM; cited from earlier work
[8] = control or reference compounds, 5 μM; cited from earlier work

T1 sequence (P42338 whole entry): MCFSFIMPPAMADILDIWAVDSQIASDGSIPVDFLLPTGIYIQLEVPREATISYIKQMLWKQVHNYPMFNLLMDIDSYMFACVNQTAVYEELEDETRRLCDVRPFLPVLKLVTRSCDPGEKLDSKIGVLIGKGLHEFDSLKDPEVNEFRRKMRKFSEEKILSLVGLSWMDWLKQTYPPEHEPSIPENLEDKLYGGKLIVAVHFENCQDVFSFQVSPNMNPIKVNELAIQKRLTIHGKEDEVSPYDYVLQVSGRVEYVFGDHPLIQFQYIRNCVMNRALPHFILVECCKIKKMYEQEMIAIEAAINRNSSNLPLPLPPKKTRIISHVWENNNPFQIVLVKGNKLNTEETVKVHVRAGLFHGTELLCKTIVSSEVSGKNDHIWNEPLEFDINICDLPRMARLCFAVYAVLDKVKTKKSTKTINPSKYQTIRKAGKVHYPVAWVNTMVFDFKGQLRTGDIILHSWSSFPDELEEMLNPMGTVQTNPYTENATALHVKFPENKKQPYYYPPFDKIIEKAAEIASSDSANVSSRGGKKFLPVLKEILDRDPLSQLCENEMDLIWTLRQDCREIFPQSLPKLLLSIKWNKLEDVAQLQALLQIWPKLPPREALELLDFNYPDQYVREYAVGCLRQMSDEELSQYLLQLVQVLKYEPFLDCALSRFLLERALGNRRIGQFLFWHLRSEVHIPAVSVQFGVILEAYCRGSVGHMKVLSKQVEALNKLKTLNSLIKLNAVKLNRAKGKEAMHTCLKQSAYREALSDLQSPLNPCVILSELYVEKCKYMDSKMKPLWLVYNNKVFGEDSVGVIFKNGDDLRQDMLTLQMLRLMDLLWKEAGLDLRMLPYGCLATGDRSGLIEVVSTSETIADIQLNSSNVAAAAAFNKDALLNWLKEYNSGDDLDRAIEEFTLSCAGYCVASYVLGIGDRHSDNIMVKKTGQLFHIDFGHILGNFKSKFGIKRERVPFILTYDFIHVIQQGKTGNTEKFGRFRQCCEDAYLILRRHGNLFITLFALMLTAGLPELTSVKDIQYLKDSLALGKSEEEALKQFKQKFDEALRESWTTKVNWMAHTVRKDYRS
T1 sequence (P27986 whole entry partner): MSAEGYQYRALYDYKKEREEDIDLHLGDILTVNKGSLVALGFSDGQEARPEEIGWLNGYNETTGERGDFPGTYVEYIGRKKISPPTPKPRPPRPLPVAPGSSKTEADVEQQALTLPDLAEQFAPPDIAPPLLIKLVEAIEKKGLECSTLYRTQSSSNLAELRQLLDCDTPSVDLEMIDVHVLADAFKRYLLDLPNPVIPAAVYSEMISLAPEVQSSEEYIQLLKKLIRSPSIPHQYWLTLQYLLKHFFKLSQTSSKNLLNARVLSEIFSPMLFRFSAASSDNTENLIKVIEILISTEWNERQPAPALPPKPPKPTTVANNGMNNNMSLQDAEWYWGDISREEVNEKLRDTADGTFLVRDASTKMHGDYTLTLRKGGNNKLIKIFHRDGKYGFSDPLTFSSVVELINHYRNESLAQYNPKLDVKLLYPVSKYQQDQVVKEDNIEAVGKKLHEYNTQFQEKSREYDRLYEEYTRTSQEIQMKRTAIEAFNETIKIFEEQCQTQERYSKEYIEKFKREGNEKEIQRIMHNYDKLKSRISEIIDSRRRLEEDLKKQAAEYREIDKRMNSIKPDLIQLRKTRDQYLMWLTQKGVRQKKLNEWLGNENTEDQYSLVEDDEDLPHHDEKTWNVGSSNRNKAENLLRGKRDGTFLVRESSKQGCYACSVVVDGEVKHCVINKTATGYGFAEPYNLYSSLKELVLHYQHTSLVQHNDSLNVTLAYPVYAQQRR
T2 sequence (P48736 whole entry): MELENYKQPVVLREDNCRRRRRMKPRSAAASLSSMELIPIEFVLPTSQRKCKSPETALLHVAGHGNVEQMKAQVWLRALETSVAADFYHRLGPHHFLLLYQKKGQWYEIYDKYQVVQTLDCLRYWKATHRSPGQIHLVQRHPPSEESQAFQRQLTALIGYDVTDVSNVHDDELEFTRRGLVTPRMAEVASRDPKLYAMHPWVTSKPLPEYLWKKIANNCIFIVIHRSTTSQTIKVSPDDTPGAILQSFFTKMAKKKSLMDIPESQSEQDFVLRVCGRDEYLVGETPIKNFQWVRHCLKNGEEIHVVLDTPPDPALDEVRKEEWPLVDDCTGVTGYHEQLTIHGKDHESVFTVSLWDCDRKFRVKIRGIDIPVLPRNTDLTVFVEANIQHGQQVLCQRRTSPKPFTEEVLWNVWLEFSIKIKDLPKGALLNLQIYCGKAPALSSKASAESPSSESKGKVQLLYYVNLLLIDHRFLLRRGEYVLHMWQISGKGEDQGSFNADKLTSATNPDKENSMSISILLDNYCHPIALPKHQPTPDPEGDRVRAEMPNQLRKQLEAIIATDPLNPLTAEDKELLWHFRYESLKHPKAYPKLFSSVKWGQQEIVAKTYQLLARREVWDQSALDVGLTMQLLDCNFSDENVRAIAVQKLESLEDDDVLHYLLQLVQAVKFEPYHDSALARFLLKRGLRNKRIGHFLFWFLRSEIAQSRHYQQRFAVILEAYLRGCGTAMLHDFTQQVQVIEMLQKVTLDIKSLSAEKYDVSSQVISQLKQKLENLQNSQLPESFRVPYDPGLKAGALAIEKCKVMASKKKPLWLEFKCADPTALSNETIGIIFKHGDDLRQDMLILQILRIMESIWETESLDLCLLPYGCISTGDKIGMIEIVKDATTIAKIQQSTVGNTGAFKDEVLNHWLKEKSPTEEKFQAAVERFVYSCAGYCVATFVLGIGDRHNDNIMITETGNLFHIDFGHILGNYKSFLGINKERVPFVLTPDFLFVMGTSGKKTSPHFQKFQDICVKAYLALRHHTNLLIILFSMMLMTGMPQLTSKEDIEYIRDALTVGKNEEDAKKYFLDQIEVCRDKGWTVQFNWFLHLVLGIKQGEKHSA
T4 sequence (P42336 whole entry): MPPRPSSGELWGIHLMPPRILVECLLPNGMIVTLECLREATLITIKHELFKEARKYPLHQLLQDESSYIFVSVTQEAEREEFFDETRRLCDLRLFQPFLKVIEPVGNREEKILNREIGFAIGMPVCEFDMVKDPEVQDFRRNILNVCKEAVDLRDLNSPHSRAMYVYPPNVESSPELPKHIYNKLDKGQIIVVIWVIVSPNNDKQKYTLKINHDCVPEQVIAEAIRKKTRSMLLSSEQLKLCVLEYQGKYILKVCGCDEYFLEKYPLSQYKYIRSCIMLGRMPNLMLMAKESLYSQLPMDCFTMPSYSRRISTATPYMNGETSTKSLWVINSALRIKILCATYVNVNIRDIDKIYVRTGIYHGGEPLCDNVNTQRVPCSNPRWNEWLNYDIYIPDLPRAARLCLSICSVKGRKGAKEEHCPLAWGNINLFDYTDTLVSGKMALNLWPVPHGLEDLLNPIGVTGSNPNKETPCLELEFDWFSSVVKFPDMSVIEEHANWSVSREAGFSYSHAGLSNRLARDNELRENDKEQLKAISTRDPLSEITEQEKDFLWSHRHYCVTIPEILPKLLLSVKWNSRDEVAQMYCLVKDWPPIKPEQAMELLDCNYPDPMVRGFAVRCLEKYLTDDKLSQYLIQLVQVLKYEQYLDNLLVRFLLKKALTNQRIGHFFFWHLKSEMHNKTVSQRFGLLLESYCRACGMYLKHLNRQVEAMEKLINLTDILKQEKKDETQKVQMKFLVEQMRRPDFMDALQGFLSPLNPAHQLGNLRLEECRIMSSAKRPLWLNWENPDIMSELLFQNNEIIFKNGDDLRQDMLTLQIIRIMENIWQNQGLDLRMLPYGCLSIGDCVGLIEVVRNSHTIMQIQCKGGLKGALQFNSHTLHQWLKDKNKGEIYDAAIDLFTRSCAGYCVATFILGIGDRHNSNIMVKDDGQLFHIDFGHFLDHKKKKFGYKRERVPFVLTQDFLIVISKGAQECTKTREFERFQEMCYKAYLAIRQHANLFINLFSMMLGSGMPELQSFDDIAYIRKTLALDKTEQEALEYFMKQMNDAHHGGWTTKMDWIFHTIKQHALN
T4 sequence (P27986 whole entry partner): as the sequence (P27986 whole entry partner) above
T3 sequence (O00329 whole entry): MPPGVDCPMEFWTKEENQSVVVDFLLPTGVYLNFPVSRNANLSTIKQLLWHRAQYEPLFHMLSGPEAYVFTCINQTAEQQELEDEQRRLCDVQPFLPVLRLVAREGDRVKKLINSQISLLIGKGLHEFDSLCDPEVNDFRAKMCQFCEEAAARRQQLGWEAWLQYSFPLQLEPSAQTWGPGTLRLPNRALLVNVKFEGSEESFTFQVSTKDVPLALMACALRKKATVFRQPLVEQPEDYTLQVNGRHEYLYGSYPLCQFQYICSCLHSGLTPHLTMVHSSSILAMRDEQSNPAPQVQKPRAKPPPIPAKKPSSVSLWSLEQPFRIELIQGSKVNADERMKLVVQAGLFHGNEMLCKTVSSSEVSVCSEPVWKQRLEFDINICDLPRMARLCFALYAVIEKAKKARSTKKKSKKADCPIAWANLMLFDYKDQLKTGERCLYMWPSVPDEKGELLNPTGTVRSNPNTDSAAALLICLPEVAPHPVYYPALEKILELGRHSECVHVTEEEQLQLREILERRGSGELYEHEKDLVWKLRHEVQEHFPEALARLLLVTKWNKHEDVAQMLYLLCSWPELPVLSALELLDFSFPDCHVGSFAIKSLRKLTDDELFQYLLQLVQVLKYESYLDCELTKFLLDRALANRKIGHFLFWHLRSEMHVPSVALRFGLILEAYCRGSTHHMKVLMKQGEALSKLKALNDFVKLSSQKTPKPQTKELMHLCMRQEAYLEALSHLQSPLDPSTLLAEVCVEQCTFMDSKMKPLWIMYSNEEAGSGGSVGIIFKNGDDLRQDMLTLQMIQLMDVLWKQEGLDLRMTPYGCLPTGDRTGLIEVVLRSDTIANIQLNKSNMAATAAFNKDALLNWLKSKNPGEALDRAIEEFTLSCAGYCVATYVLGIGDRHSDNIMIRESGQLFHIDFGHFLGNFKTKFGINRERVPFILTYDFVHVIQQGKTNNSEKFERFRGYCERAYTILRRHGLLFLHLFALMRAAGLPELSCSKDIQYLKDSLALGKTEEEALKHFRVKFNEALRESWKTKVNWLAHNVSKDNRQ
T3 sequence (P27986 whole entry partner): as the sequence (P27986 whole entry partner) above

| Structure (SMILES) | IC50 [1] | IC50 [2] | IC50 [3] | IC50 [4] | IC50 [5] | lupus symptoms [6] | chemical stability [7] | plasma stability [8] |
| --- | --- | --- | --- | --- | --- | --- | --- | --- |
| Cc1cccc2cc([C@H](C)Nc3ncnc4cccnc34)nc(N3CCN(C)CC3)c12 [Compound 164] | < 10 µM | < 10 µM | < 0.1 µM | < 0.1 µM | < 10 µM | – | – | – |
| Cc1cccc2cc([C@H](C)Nc3ncnc4cccnc34)nc(CCN3CCOCC3)c12 [Compound 165] | > 10 µM | < 10 µM | < 0.1 µM | < 0.1 µM | < 10 µM | – | – | – |
| Cc1cccc2cc([C@H](C)Nc3ncnc4cccnc34)nc(C(=O)N3CCOCC3)c12 [Compound 166] | < 10 µM | < 1 µM | < 0.1 µM | < 0.1 µM | < 10 µM | – | – | – |
| Cc1cccc2cc([C@H](C)Nc3ncnc4cccnc34)nc(C(=O)N3C4CCC3COC4)c12 [Compound 167] | < 10 µM | < 1 µM | < 0.1 µM | < 0.1 µM | < 10 µM | – | – | – |
| C[C@H](Nc1ncnc2scnc12)c1cc2cccc(Cl)c2c(OC2CCN(S(C)(=O)=O)CC2)n1 [Compound 172] | < 10 µM | < 10 µM | < 1 µM | < 0.1 µM | > 10 µM | – | – | – |
| C[C@H](Nc1ncnc2cccnc12)c1cc2cccc(Cl)c2c(OC2CCN(S(C)(=O)=O)CC2)n1 [Compound 173] | < 10 µM | < 10 µM | < 1 µM | < 0.1 µM | > 10 µM | – | – | – |
| C[C@H](Nc1ccnn2ccnc12)c1cc2cccc(Cl)c2c(OC2CCN(S(C)(=O)=O)CC2)n1 [Compound 176] | < 10 µM | < 10 µM | < 1 µM | < 0.1 µM | > 10 µM | – | – | – |
| C[C@H](Nc1ccnc2ccnn12)c1cc2cccc(Cl)c2c(C(=O)NC2CCOCC2)n1 [Compound 177] | > 10 µM | > 10 µM | < 0.1 µM | < 0.1 µM | > 10 µM | – | – | – |
| C[C@H](Nc1ccnn2ccnc12)c1cc2cccc(Cl)c2c(C(=O)NC2CCOCC2)n1 [Compound 180] | > 10 µM | > 10 µM | < 0.1 µM | < 0.1 µM | > 10 µM | – | – | – |
| C[C@H](Nc1ccnn2ccnc12)c1cc2cccc(Cl)c2c(OCCN2CCCC2)n1 [Compound 182] | > 10 µM | > 10 µM | < 1 µM | < 0.1 µM | > 10 µM | – | – | – |
| C[C@H](Nc1ncnc2[nH]cnc12)c1cc2cccc(-c3cnn(C)c3)c2c(C(=O)N2CCOCC2)n1 [Compound 185] | > 10 µM | < 10 µM | < 0.1 µM | < 0.1 µM | > 10 µM | – | – | – |
| C[C@H](Nc1ccnn2ccnc12)c1cc2cccc(Cl)c2c(C(=O)N2CCOCC2)n1 [Compound 188] | < 1 µM | < 1 µM | < 0.1 µM | < 0.1 µM | < 10 µM | – | – | – |
| C[C@H](Nc1ccnn2ccnc12)c1cc2cccc(Cl)c2c(C(=O)N2C3CCC2COC3)n1 [Compound 189] | < 10 µM | < 10 µM | < 0.1 µM | < 0.1 µM | > 10 µM | – | – | – |
| C[C@H](Nc1ncnc2[nH]cnc12)c1cc2cccc(-c3cccnc3)c2c(Cl)n1 [Compound 192] | > 10 µM | < 1 µM | < 1 µM | < 0.1 µM | > 10 µM | – | – | – |
| C[C@H](Nc1ncnc2[nH]cc(C(N)=O)c12)c1cc2cccc(Cl)c2c(C(=O)N2CCOCC2)n1 [Compound 204] | < 10 µM | < 0.1 µM | < 0.1 µM | < 0.1 µM | < 10 µM | – | – | – |
| C[C@H](Nc1ncnc2[nH]cc(C(N)=O)c12)c1cc2cccc(Cl)c2c(C(=O)N2C3CCC2COC3)n1 [Compound 207] | < 10 µM | < 0.1 µM | < 0.1 µM | < 0.1 µM | < 10 µM | – | – | – |

| Structure (SMILES) | IC50 [1] | IC50 [2] | IC50 [3] | IC50 [4] | IC50 [5] | lupus symptoms [6] | chemical stability [7] | plasma stability [8] |
| --- | --- | --- | --- | --- | --- | --- | --- | --- |
| C[C@H](Nc1ncnc2[nH]cc(F)c12)c1cc2cccc(Cl)c2c(C(=O)N2C3CCC2COC3)n1 [Compound 208] | < 10 µM | < 1 µM | < 0.1 µM | < 0.1 µM | < 10 µM | – | – | – |
| CCN1CCC(NC(=O)c2nc([C@H](C)Nc3ncnc4scnc34)cc3cccc(Cl)c23)CC1 [Compound 212] | < 10 µM | < 10 µM | < 0.1 µM | < 0.1 µM | < 10 µM | – | – | – |
| C[C@H](Nc1ncnc2scnc12)c1cc2cccc(Cl)c2c(C(=O)NC2CCCC2)n1 [Compound 213] | > 10 µM | < 10 µM | < 0.1 µM | < 0.1 µM | < 10 µM | – | – | – |
| C[C@H](Nc1ncnc2scnc12)c1cc2cccc(Cl)c2c(C(=O)NC2CCC(O)CC2)n1 (stereo partly drawn) [Compound 214] | > 10 µM | < 10 µM | < 0.1 µM | < 0.1 µM | < 10 µM | – | – | – |
| C[C@H](Nc1ncnc2scnc12)c1cc2cccc(Cl)c2c(C(=O)N2CCS(=O)(=O)CC2)n1 [Compound 220] | < 10 µM | < 1 µM | < 0.1 µM | < 0.1 µM | > 10 µM | – | – | – |
| C[C@H](Nc1ncnc2scnc12)c1cc2cccc(Cl)c2c(C(=O)N2CCC(F)(F)CC2)n1 [Compound 228] | < 10 µM | < 10 µM | < 0.1 µM | < 0.1 µM | < 10 µM | – | – | – |
| C[C@H](Nc1ncnc2scnc12)c1cc2cccc(Cl)c2c(C(=O)N2CCOC[C@@H]2C)n1 [Compound 232] | < 10 µM | < 10 µM | < 0.1 µM | < 0.1 µM | < 10 µM | – | – | – |
| C[C@H](Nc1ncnc2scnc12)c1cc2cccc(Cl)c2c(C(=O)N2CCC(O)CC2)n1 [Compound 234] | < 10 µM | < 10 µM | < 0.1 µM | < 0.1 µM | < 10 µM | – | – | – |
| C[C@H](Nc1nc(N)nc2cccnc12)c1cc2cccc(Cl)c2c(C(=O)N2CCOCC2)n1 [Compound 238] | < 10 µM | < 0.1 µM | < 0.1 µM | < 0.1 µM | > 10 µM | – | – | – |
| C[C@H](Nc1ncnc2[nH]cnc12)c1cc2cccc(Cl)c2c(-c2cc(CO)on2)n1 [Compound 242] | < 1 µM | < 1 µM | < 0.1 µM | < 0.1 µM | < 10 µM | – | – | – |
| C[C@H](Nc1ncnc2cccnc12)c1cc2ccccc2c(C(=O)N2CCOCC2)n1 [Compound 247] | > 10 µM | > 10 µM | < 1 µM | < 0.1 µM | > 10 µM | – | – | – |
| C[C@H](Nc1ncnc2cccnc12)c1cc2cccc(Cl)c2c(C(=O)N2CCOC[C@@H]2C)n1 [Compound 248] | < 10 µM | < 1 µM | < 0.1 µM | < 0.1 µM | < 10 µM | – | – | – |
| CO[C@H]1C[C@@H]2CC[C@@H](C)[C@@](O)(O2)C(=O)C(=O)N2CCCC[C@H]2C(=O)O[C@H]([C@H](C)C[C@@H]2CC[C@@H](OCCO)[C@H](OC)C2)CC(=O)[C@H](C)/C=C(\C)[C@@H](O)[C@@H](OC)C(=O)[C@H](C)C[C@H](C)/C=C/C=C/C=C/1C [RAD001, everolimus] | – | – | – | – | – | ameliorate lupus symptoms | – | – |
| O=C(O)CCCc1ccc(N(CCCl)CCCl)cc1 [chlorambucil] | – | – | – | – | – | – | largely hydrolyzed over the course of 24 hours | – |
| CC(C)[N+](C)(CCOC(=O)C1c2ccccc2Oc2ccccc21)C(C)C [propantheline] | – | – | – | – | – | – | – | intermediate plasma stability |
| CCCOc1cc(N)ccc1C(=O)OCCN(CC)CC [propoxycaine] | – | – | – | – | – | – | – | low plasma stability |
